ChEMBL document CHEMBL1201862, “PubChem BioAssay data set” (2004)
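Exposure lasted 48 hours, with cells grown in 96-well plates and compounds tested at five concentrations. GI50 marks 50% less growth.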 Calls of active or inactive are those of the source. No stated cut-off is given here; in the data, active = GI50 up to about 1.1 µM and inactive = higher.

What was measured:
Experiment in all cases: NCI-60 cell line screen, 48 h
SK-OV-3 = system: SK-OV-3
OVCAR-8 = system: OVCAR-8
U-251 = system: U-251
EKVX = system: EKVX
HOP-62 = system: HOP-62
MOLT-4 = system: MOLT-4
IGROV-1 = system: IGROV-1
ACHN = system: ACHN
M14 = system: M14
MDA-MB-435 = system: MDA-MB-435
HCT-116 = system: HCT-116
T47D = system: T47D
KM12 = system: KM12
OVCAR-4 = system: OVCAR-4
SN12C = system: SN12C
SNB-75 = system: SNB-75
TK-10 = system: TK-10
SNB-19 = system: SNB-19
NCI-H522 = system: NCI-H522
K562 = system: K562
RPMI-8226 = system: RPMI-8226
SW-620 = system: SW-620
UO-31 = system: UO-31
MDA-N = system: MDA-N
MDA-MB-231 = system: MDA-MB-231
PC-3 = system: PC-3
CCRF-CEM = system: CCRF-CEM
786-0 = system: 786-0
SF-539 = system: SF-539
UACC-257 = system: UACC-257
SK-MEL-28 = system: SK-MEL-28
MCF7 = system: MCF7
OVCAR-5 = system: OVCAR-5
HL-60 = system: HL-60
COLO 205 = system: COLO 205
NCI/ADR-RES = system: NCI/ADR-RES
SF-268 = system: SF-268
HT-29 = system: HT-29
NCI-H460 = system: NCI-H460
SR = system: SR
HCT-15 = system: HCT-15
Hs-578T = system: Hs-578T
HCC 2998 = system: HCC 2998
A549 = system: A549
SK-MEL-5 = system: SK-MEL-5
SF-295 = system: SF-295
UACC-62 = system: UACC-62
OVCAR-3 = system: OVCAR-3
CAKI-1 = system: CAKI-1
Malme-3M = system: Malme-3M
HOP-92 = system: HOP-92
A498 = system: A498
NCI-H226 = system: NCI-H226
LOX IMVI = system: LOX IMVI
DU-145 = system: DU-145
SK-MEL-2 = system: SK-MEL-2
NCI-H23 = system: NCI-H23
RXF 393 = system: RXF 393

## Cc1ccc2n(c1)cc(-c1ccc(/C=N/NC(=N)N/N=C/c3ccc(-c4cn5cc(C)ccc5[n+]4C)cc3)cc1)[n+]2C
SK-OV-3
  GI50: > 100 µM (inactive)
OVCAR-8
  GI50: > 100 µM (inactive)
U-251
  GI50: > 100 µM (inactive)
EKVX
  GI50: > 100 µM (inactive)
HOP-62
  GI50: > 100 µM (inactive)
MOLT-4
  GI50: > 100 µM (inactive)
IGROV-1
  GI50: > 100 µM (inactive)
ACHN
  GI50: 40.2 µM (inactive)
M14
  GI50: 33.9 µM (inactive)
MDA-MB-435
  GI50: 35.6 µM (inactive)
HCT-116
  GI50: > 100 µM (inactive)
T47D
  GI50: > 100 µM (inactive)
KM12
  GI50: > 100 µM (inactive)
OVCAR-4
  GI50: 26.9 µM (inactive)
SN12C
  GI50: > 100 µM (inactive)
SNB-75
  GI50: 20.9 µM (inactive)
TK-10
  GI50: > 100 µM (inactive)
SNB-19
  GI50: > 100 µM (inactive)
NCI-H522
  GI50: > 100 µM (inactive)
K562
  GI50: > 10 µM (inactive)
RPMI-8226
  GI50: > 100 µM (inactive)
SW-620
  GI50: > 100 µM (inactive)
UO-31
  GI50: 25.6 µM (inactive)
MDA-N
  GI50: 50.2 µM (inactive)
MDA-MB-231
  GI50: > 100 µM (inactive)
PC-3
  GI50: > 100 µM (inactive)
CCRF-CEM
  GI50: > 100 µM (inactive)
786-0
  GI50: 36.3 µM (inactive)
SF-539
  GI50: 39.8 µM (inactive)
UACC-257
  GI50: 50.6 µM (inactive)
SK-MEL-28
  GI50: 19.5 µM (inactive)
MCF7
  GI50: > 100 µM (inactive)
OVCAR-5
  GI50: > 100 µM (inactive)
HL-60
  GI50: > 100 µM (inactive)
COLO 205
  GI50: > 100 µM (inactive)
NCI/ADR-RES
  GI50: > 100 µM (inactive)
SF-268
  GI50: 21.4 µM (inactive)
HT-29
  GI50: > 100 µM (inactive)
NCI-H460
  GI50: 80.2 µM (inactive)
SR
  GI50: > 100 µM (inactive)
HCT-15
  GI50: 95.9 µM
Hs-578T
  GI50: 74.3 µM (inactive)
HCC 2998
  GI50: > 100 µM (inactive)
A549
  GI50: > 100 µM (inactive)
SK-MEL-5
  GI50: 41.1 µM (inactive)
SF-295
  GI50: > 100 µM (inactive)

## Oc1nnc(-c2ccc(F)cc2)cc1-c1ccccc1
SK-OV-3
  GI50: 42.6 µM (inactive)
OVCAR-8
  GI50: 50.4 µM (inactive)
UACC-62
  GI50: 76.2 µM (inactive)
U-251
  GI50: 35.8 µM (inactive)
EKVX
  GI50: 42.9 µM (inactive)
OVCAR-3
  GI50: 23.4 µM (inactive)
MOLT-4
  GI50: > 100 µM (inactive)
IGROV-1
  GI50: 72.8 µM (inactive)
ACHN
  GI50: 57.9 µM (inactive)
M14
  GI50: > 100 µM (inactive)
MDA-MB-435
  GI50: > 100 µM (inactive)
HCT-116
  GI50: > 100 µM (inactive)
T47D
  GI50: 44.2 µM (inactive)
CAKI-1
  GI50: 69.5 µM (inactive)
KM12
  GI50: > 100 µM (inactive)
OVCAR-4
  GI50: 38 µM (inactive)
Malme-3M
  GI50: 97.5 µM (inactive)
SN12C
  GI50: > 100 µM (inactive)
TK-10
  GI50: 71.4 µM (inactive)
SNB-19
  GI50: 44.8 µM (inactive)
K562
  GI50: > 100 µM (inactive)
RPMI-8226
  GI50: 75 µM (inactive)
SW-620
  GI50: > 100 µM (inactive)
MDA-MB-231
  GI50: > 100 µM (inactive)
PC-3
  GI50: 91.4 µM (inactive)
CCRF-CEM
  GI50: > 100 µM (inactive)
786-0
  GI50: 45.7 µM (inactive)
SF-539
  GI50: 35.9 µM (inactive)
HOP-92
  GI50: > 100 µM (inactive)
UACC-257
  GI50: > 100 µM (inactive)
A498
  GI50: 64.4 µM (inactive)
SK-MEL-28
  GI50: 83.9 µM (inactive)
MCF7
  GI50: 71.4 µM (inactive)
NCI-H226
  GI50: > 100 µM (inactive)
OVCAR-5
  GI50: > 100 µM (inactive)
HL-60
  GI50: > 100 µM (inactive)
COLO 205
  GI50: > 100 µM (inactive)
NCI/ADR-RES
  GI50: > 100 µM (inactive)
LOX IMVI
  GI50: > 100 µM (inactive)
SF-268
  GI50: 46.1 µM (inactive)
DU-145
  GI50: 57.5 µM (inactive)
HT-29
  GI50: > 100 µM (inactive)
NCI-H460
  GI50: 89.7 µM (inactive)
SK-MEL-2
  GI50: 80.7 µM (inactive)
SR
  GI50: > 100 µM (inactive)
HCT-15
  GI50: > 100 µM
Hs-578T
  GI50: 48.3 µM (inactive)
HCC 2998
  GI50: 78.5 µM (inactive)
NCI-H23
  GI50: > 100 µM (inactive)
RXF 393
  GI50: 46.1 µM (inactive)
A549
  GI50: > 100 µM (inactive)
SK-MEL-5
  GI50: > 100 µM (inactive)
SF-295
  GI50: 40.4 µM (inactive)

## O=c1cc(-c2ccccc2)[nH]c2cc(F)c(F)cc12
SK-OV-3
  GI50: 0.575 µM (active)
OVCAR-8
  GI50: 0.824 µM (active)
UACC-62
  GI50: 0.322 µM (active)
U-251
  GI50: 0.692 µM (active)
EKVX
  GI50: 11.5 µM (inactive)
HOP-62
  GI50: 1.33 µM (inactive)
OVCAR-3
  GI50: 0.34 µM (active)
MOLT-4
  GI50: 0.438 µM (active)
IGROV-1
  GI50: 0.634 µM (active)
ACHN
  GI50: 0.676 µM (active)
M14
  GI50: 0.392 µM (active)
MDA-MB-435
  GI50: 0.1 µM (active)
HCT-116
  GI50: 0.417 µM (active)
CAKI-1
  GI50: > 100 µM (inactive)
KM12
  GI50: 0.326 µM (active)
OVCAR-4
  GI50: > 51.4 µM (inactive)
Malme-3M
  GI50: > 69.5 µM (inactive)
SN12C
  GI50: 1.97 µM (inactive)
SNB-75
  GI50: 0.274 µM (active)
TK-10
  GI50: 3.83 µM (inactive)
SNB-19
  GI50: 0.718 µM (active)
NCI-H522
  GI50: 0.385 µM (active)
K562
  GI50: 0.29 µM (active)
RPMI-8226
  GI50: 0.309 µM (active)
SW-620
  GI50: 0.355 µM (active)
UO-31
  GI50: 0.805 µM (active)
MDA-N
  GI50: 0.0764 µM (active)
MDA-MB-231
  GI50: 1.44 µM (inactive)
PC-3
  GI50: 0.222 µM (active)
CCRF-CEM
  GI50: 0.379 µM (active)
786-0
  GI50: 0.238 µM (active)
SF-539
  GI50: 0.342 µM (active)
HOP-92
  GI50: 0.789 µM (active)
UACC-257
  GI50: 0.498 µM (active)
SK-MEL-28
  GI50: 1.72 µM (inactive)
MCF7
  GI50: 0.323 µM (active)
NCI-H226
  GI50: 1.55 µM (inactive)
OVCAR-5
  GI50: 1.89 µM (inactive)
HL-60
  GI50: 0.23 µM (active)
COLO 205
  GI50: 0.661 µM (active)
NCI/ADR-RES
  GI50: 0.425 µM (active)
LOX IMVI
  GI50: 0.494 µM (active)
SF-268
  GI50: 1.45 µM (inactive)
DU-145
  GI50: 0.472 µM (active)
HT-29
  GI50: 0.998 µM (active)
NCI-H460
  GI50: 0.565 µM (active)
SK-MEL-2
  GI50: 3.01 µM (inactive)
SR
  GI50: 0.189 µM (active)
HCT-15
  GI50: 0.472 µM
Hs-578T
  GI50: 0.423 µM (active)
HCC 2998
  GI50: 5.11 µM (inactive)
NCI-H23
  GI50: 0.653 µM (active)
RXF 393
  GI50: 0.23 µM (active)
A549
  GI50: 0.463 µM (active)
SK-MEL-5
  GI50: 0.197 µM (active)
SF-295
  GI50: 1.21 µM (inactive)

## N=C(N)c1ccc(OCCCCCOc2ccc(C(=N)N)cc2)cc1
OVCAR-8
  GI50: 7.85 µM (inactive)
UACC-62
  GI50: 11.5 µM (inactive)
U-251
  GI50: 9.84 µM (inactive)
EKVX
  GI50: 18.1 µM (inactive)
HOP-62
  GI50: 16.1 µM (inactive)
OVCAR-3
  GI50: 15.5 µM (inactive)
ACHN
  GI50: 14.4 µM (inactive)
M14
  GI50: 15.2 µM (inactive)
MDA-MB-435
  GI50: 10.4 µM (inactive)
HCT-116
  GI50: 14.4 µM (inactive)
T47D
  GI50: 7.73 µM (inactive)
CAKI-1
  GI50: > 100 µM (inactive)
OVCAR-4
  GI50: 11.2 µM (inactive)
Malme-3M
  GI50: 13.8 µM (inactive)
SN12C
  GI50: 7.06 µM (inactive)
TK-10
  GI50: 13.6 µM (inactive)
SNB-19
  GI50: 15.7 µM (inactive)
NCI-H522
  GI50: 6.44 µM (inactive)
K562
  GI50: 1.92 µM (inactive)
MDA-N
  GI50: 11.2 µM (inactive)
PC-3
  GI50: 12.1 µM (inactive)
786-0
  GI50: 13.4 µM (inactive)
HOP-92
  GI50: 32.6 µM (inactive)
SK-MEL-28
  GI50: 10.2 µM (inactive)
MCF7
  GI50: 5.31 µM (inactive)
OVCAR-5
  GI50: 22.8 µM (inactive)
HL-60
  GI50: 15.3 µM (inactive)
LOX IMVI
  GI50: 12.7 µM (inactive)
SF-268
  GI50: 12.5 µM (inactive)
DU-145
  GI50: 13.6 µM (inactive)
NCI-H460
  GI50: 3.08 µM (inactive)
SK-MEL-2
  GI50: 17.3 µM (inactive)
HCT-15
  GI50: 16.7 µM
Hs-578T
  GI50: 11.5 µM (inactive)
NCI-H23
  GI50: 6.71 µM (inactive)
A549
  GI50: 6.17 µM (inactive)
